In PubChem BioAssay AID276 (DTP/NCI, 2004):
Several values for one entry are separate records, joined by “and”; a condition that tells them apart may be missing. Equal entries are not always repeated. Toxic doses and inconclusive results are not listed. The calls were made as follows: active = survival T/C of 150% or more; inactive = T/C below 125% in these data.

System: B6C3F1 mice, Lewis lung carcinoma iv, survival T/C
Experiment: NCI In Vivo Anticancer Drug Screen. Data for tumor model Lewis Lung Carcinoma (intravenous) in B6C3F1 mice
Settings: endpoint: median survival time, higher = longer survival
Procedure, shortened: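 Transplantable tumor in mice; compound treated vs vehicle controls; read-out survival; value = treated/control (T/C).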

[1] = dose: 2.0 mg/kg/injection, schedule: Q01DX009 (ip), vehicle: saline
[2] = dose: 12.5 mg/kg/injection, schedule: Q01DX009 (ip), vehicle: saline
[3] = dose: 6.25 mg/kg/injection, schedule: Q01DX009 (ip), vehicle: saline with Tween-80
[4] = dose: 12.5 mg/kg/injection, schedule: Q01DX009 (ip), vehicle: saline with Tween-80
[5] = dose: 25.0 mg/kg/injection, schedule: Q01DX009 (ip), vehicle: saline with Tween-80
[6] = dose: 50.0 mg/kg/injection, schedule: Q01DX009 (ip), vehicle: saline with Tween-80

Measured: T/C

CC1=C(C)C(=O)O[C@@H]([C@](C)(O)[C@]2(O)CC[C@@]3(O)[C@@H]4C[C@H]5O[C@]56[C@@H](O)C=CC(=O)[C@]6(C)[C@H]4CC[C@]23C)C1
inactive: dose: 1.0 mg/kg/injection, schedule: Q01DX009 (ip), vehicle: saline 97 % of control | [1] 100 % of control and 101 % of control | dose: 4.0 mg/kg/injection, schedule: Q01DX009 (ip), vehicle: saline 101 % of control and 104 % of control | dose: 8.0 mg/kg/injection, schedule: Q01DX009 (ip), vehicle: saline 94 % of control and 101 % of control | dose: 16.0 mg/kg/injection, schedule: Q01DX009 (ip), vehicle: saline 94 % of control | dose: 32.0 mg/kg/injection, schedule: Q01DX009 (ip), vehicle: saline 92 % of control

N=C(N)CCCCCCCCC(=N)N
inactive: dose: 0.79 mg/kg/injection, schedule: Q01DX009 (ip), vehicle: saline 112 % of control | dose: 1.56 mg/kg/injection, schedule: Q01DX009 (ip), vehicle: saline 119 % of control | dose: 3.12 mg/kg/injection, schedule: Q01DX009 (ip), vehicle: saline 112 % of control | dose: 6.25 mg/kg/injection, schedule: Q01DX009 (ip), vehicle: saline 124 % of control | dose: 12.5 mg/kg/injection, schedule: Q01DX001 (ip), vehicle: saline 97 % of control | [2] 115 % of control | dose: 25.0 mg/kg/injection, schedule: Q01DX001 (ip), vehicle: saline 103 % of control | dose: 50.0 mg/kg/injection, schedule: Q01DX001 (ip), vehicle: saline 107 % of control

O=S1(=O)C=C(c2ccccc2)C(c2ccccc2)=C1
inactive: dose: 3.12 mg/kg/injection, schedule: Q01DX009 (ip), vehicle: saline with Tween-80 101 % of control | [3] 89 % of control | [4] 101 % of control | [5] 110 % of control

c1ccc(P(CCNCCP(c2ccccc2)c2ccccc2)c2ccccc2)cc1
inactive: [5] 104 % of control | [6] 97 % of control

COc1c(C=O)c2c(c(OC)c1OC)-c1ccc(OC)c(=O)cc1[C@@H](NC(C)=O)CC2
inactive: dose: 1.56 mg/kg/injection, schedule: Q01DX009 (ip), vehicle: Klucel (hydroxypropylcellulose) (HPC) 95 % of control | dose: 3.12 mg/kg/injection, schedule: Q01DX009 (ip), vehicle: Klucel (hydroxypropylcellulose) (HPC) 98 % of control | dose: 6.25 mg/kg/injection, schedule: Q01DX009 (ip), vehicle: Klucel (hydroxypropylcellulose) (HPC) 95 % of control

CN=S(=O)(OCCCCCOS(=O)(=NC)c1ccc(C)cc1)c1ccc(C)cc1 (stereo unspecified)
inactive: [3] 99 % of control | [4] 99 % of control | [5] 91 % of control | [6] 94 % of control | dose: 100.0 mg/kg/injection, schedule: Q01DX009 (ip), vehicle: saline with Tween-80 92 % of control | dose: 200.0 mg/kg/injection, schedule: Q01DX009 (ip), vehicle: saline with Tween-80 96 % of control

Cc1cc(=O)n2c3c(c4c(cc13)c(CN(C)C)cc(=O)n4C)OC2
inactive: [3] 106 % of control | [4] 105 % of control | [5] 109 % of control | [6] 123 % of control

CCC(C(=O)O)C(=O)O.[NH-]CC1CCCC[N-]1.[Pt+2]
inactive: [2] 105 % of control | dose: 12.5 mg/kg/injection, schedule: Q01DX009 (ip), vehicle: suspension in saline 103 % of control | dose: 25.0 mg/kg/injection, schedule: Q01DX009 (ip), vehicle: saline 106 % of control | dose: 25.0 mg/kg/injection, schedule: Q01DX009 (ip), vehicle: suspension in saline 104 % of control | dose: 50.0 mg/kg/injection, schedule: Q01DX009 (ip), vehicle: saline 113 % of control | dose: 50.0 mg/kg/injection, schedule: Q01DX009 (ip), vehicle: suspension in saline 116 % of control | dose: 100.0 mg/kg/injection, schedule: Q01DX009 (ip), vehicle: suspension in saline 123 % of control

Nc1nc(=S)c2[nH]cnc2[nH]1
inactive: dose: 0.5 mg/kg/injection, schedule: Q01DX009 (ip), vehicle: saline 104 % of control | [1] 114 % of control

OCC1OC(n2cnc3c(NO)ncnc32)C(O)C1O (stereo unspecified)
inactive: dose: 12.5 mg/kg/injection, schedule: Q01DX009 (ip), vehicle: Klucel (hydroxypropylcellulose) (HPC) 102 % of control | dose: 25.0 mg/kg/injection, schedule: Q01DX009 (ip), vehicle: Klucel (hydroxypropylcellulose) (HPC) 97 % of control | dose: 50.0 mg/kg/injection, schedule: Q01DX009 (ip), vehicle: Klucel (hydroxypropylcellulose) (HPC) 109 % of control | dose: 100.0 mg/kg/injection, schedule: Q01DX009 (ip), vehicle: Klucel (hydroxypropylcellulose) (HPC) 105 % of control | dose: 200.0 mg/kg/injection, schedule: Q01DX009 (ip), vehicle: Klucel (hydroxypropylcellulose) (HPC) 110 % of control | dose: 400.0 mg/kg/injection, schedule: Q01DX009 (ip), vehicle: Klucel (hydroxypropylcellulose) (HPC) 109 % of control

COC1=C2C[C@@H](C)C[C@@H](OC)[C@@H](O)[C@H](C)/C=C(\C)[C@@H](OC(N)=O)[C@H](OC)/C=C\C=C(/C)C(=O)NC(=CC1=O)C2=O
inactive: dose: 0.12 mg/kg/injection, schedule: Q01DX009 (ip), vehicle: saline with Tween-80 96 % of control | dose: 0.13 mg/kg/injection, schedule: Q01DX009 (ip), vehicle: saline with Tween-80 109 % of control | dose: 0.25 mg/kg/injection, schedule: Q01DX009 (ip), vehicle: saline with Tween-80 96 % of control and 110 % of control | dose: 0.5 mg/kg/injection, schedule: Q01DX009 (ip), vehicle: saline with Tween-80 101 % of control and 108 % of control | dose: 1.0 mg/kg/injection, schedule: Q01DX009 (ip), vehicle: saline with Tween-80 101 % of control and 106 % of control | dose: 2.0 mg/kg/injection, schedule: Q01DX009 (ip), vehicle: saline with Tween-80 100 % of control and 106 % of control | dose: 4.0 mg/kg/injection, schedule: Q01DX009 (ip), vehicle: saline with Tween-80 102 % of control

CCCCNC(C)[C@]1(O)Cc2c(O)c3c(c(O)c2[C@@H](OC2CC(N)C(O)C(C)O2)C1)C(=O)c1c(OC)cccc1C3=O (stereo partly specified)
inactive: dose: 0.62 mg/kg/injection, schedule: Q01DX009 (ip), vehicle: water 107 % of control | dose: 1.25 mg/kg/injection, schedule: Q01DX009 (ip), vehicle: water 114 % of control | dose: 2.5 mg/kg/injection, schedule: Q01DX009 (ip), vehicle: water 103 % of control | dose: 5.0 mg/kg/injection, schedule: Q01DX009 (ip), vehicle: water 115 % of control

CO[C@@]12[C@@H]3N[C@@H]3CN1C1=C(C(=O)C(NCC3CCCO3)=C(C)C1=O)[C@@H]2COC(N)=O (stereo partly specified)
inactive: dose: 1.5 mg/kg/injection, schedule: Q01DX009 (ip), vehicle: distilled water + Tween-80 104 % of control | dose: 3.0 mg/kg/injection, schedule: Q01DX009 (ip), vehicle: distilled water + Tween-80 104 % of control | dose: 6.0 mg/kg/injection, schedule: Q01DX009 (ip), vehicle: distilled water + Tween-80 116 % of control

C=CCCC(=O)CCCC(=O)O[C@@H]1[C@@H]2[C@H](CC1(C)C)[C@H](O)[C@@]13O[C@@H]1[C@H](O)[C@@]1(CO1)[C@@]23C
inactive: dose: 3.12 micrograms/kg/injection, schedule: Q01DX009 (ip), vehicle: Klucel (hydroxypropylcellulose) (HPC) 113 % of control | dose: 6.25 micrograms/kg/injection, schedule: Q01DX009 (ip), vehicle: Klucel (hydroxypropylcellulose) (HPC) 98 % of control | dose: 12.5 micrograms/kg/injection, schedule: Q01DX009 (ip), vehicle: Klucel (hydroxypropylcellulose) (HPC) 97 % of control | dose: 25.0 micrograms/kg/injection, schedule: Q01DX009 (ip), vehicle: Klucel (hydroxypropylcellulose) (HPC) 94 % of control | dose: 50.0 micrograms/kg/injection, schedule: Q01DX009 (ip), vehicle: Klucel (hydroxypropylcellulose) (HPC) 110 % of control

COC(=O)C12OCC34C(CC5C(C)C6=CC(=O)OC6=CC5(C)C3C(O)C1O)OC(=O)C(OC(C)=O)C24 (stereo unspecified)
inactive: dose: 2.0 mg/kg/injection, schedule: Q01DX009 (ip), vehicle: saline + alcohol 102 % of control | dose: 4.0 mg/kg/injection, schedule: Q01DX009 (ip), vehicle: saline + alcohol 97 % of control | dose: 8.0 mg/kg/injection, schedule: Q01DX009 (ip), vehicle: saline + alcohol 96 % of control | dose: 16.0 mg/kg/injection, schedule: Q01DX009 (ip), vehicle: saline + alcohol 98 % of control | dose: 125.0 micrograms/kg/injection, schedule: Q01DX009 (ip), vehicle: saline + alcohol 114 % of control | dose: 250.0 micrograms/kg/injection, schedule: Q01DX009 (ip), vehicle: saline + alcohol 118 % of control | dose: 500.0 micrograms/kg/injection, schedule: Q01DX009 (ip), vehicle: saline + alcohol 109 % of control | dose: 1000.0 micrograms/kg/injection, schedule: Q01DX009 (ip), vehicle: saline + alcohol 106 % of control | dose: 2000.0 micrograms/kg/injection, schedule: Q01DX009 (ip), vehicle: saline + alcohol 112 % of control
